The values that follow come from patent US20240366784A1, “INJECTABLE HYDROGEL COMPOSITIONS AND METHODS OF USE THEREOF” (Drexel University, priority 2023, published 2024).

Molecules are shown by their SMILES.

For experiment [1] the following is noted: typically reported; cited from earlier work.
The subject of another experiment is RAW264.7 cells. In words: qPCR transcriptional analysis of zymosan-activated RAW264.7 macrophages. The class given is cell-based, murine. The note with it: zymosan 100 μg/mL, drug 1 μM, 24 hrs. The protocol:
For secondary identification of M2-promoting drugs, transcriptional analysis using qPCR was performed. RAW264.7 cells were plated at 1×10^6 cells/well in 24 well plates. After 24 h, media was replaced, and IL-4 (10 ng/mL, PeproTech) or zymosan (100 μg/mL) were included to serve as internal controls for M2-like and M1-like phenotypes, respectively. Treatment groups were concurrently activated via zymosan and treated with 1 μM drug concentrations, n=3 per group. After 24 hrs, cells were lysed by freezing, RNA was extracted (RNEasy Mini Kit; Qiagen), and cDNA synthesis was performed (High-Capacity cDNA Reverse Transcription Kit; Fisher). Samples were subject to qPCR using Taqman Fast Advanced Master Mix and probes (Fisher) for analysis of hprt (Mm01545399_m1), nos2 (Mm00440502_m1), il12b (Mm01288989_m1), il6 (Mm00446190_m1), mrc1 (Mm00485148_m1), il10 (Mm01288386_m1), and arg1 (Mm00475988_m1). Data is expressed as a fold change in gene expression using the ΔΔCt method, relative to the hprt and zymosan-treated controls.
On the technique in general: Real-time PCR tracks product formation cycle by cycle.

The test system of experiment [2] is Bone marrow derived macrophages (BMDMs). The experiment can be described thus: nanoString gene expression analysis in zymosan-activated bone marrow derived macrophages. The note with it: zymosan 100 μg/mL, drug 1 μM, 24 hrs, 91-gene panel. The class given is cell-based, mouse. The protocol: Cells were maintained under standard culture conditions (37° C., 5% CO2) in the indicated medium which was replenished every two days. The murine MF cell lines, RAW 264.7 (ATCC) and RAW-Blue™ (InvivoGen), were cultured in Dulbecco's Modified Eagle Medium (DMEM) supplemented with heat-inactivated fetal bovine serum (FBS), and 1% penicillin-streptomycin (Pen-Strep). RAW-Blue™ media was additionally supplemented by 100 μg/ml Normocin with the addition of 100 μg/ml of Zeocin every other passage to maintain selection pressure, as recommended by the manufacturer. Cells were passaged at 70% confluency. Primary MF were derived from murine and human tissues. Bone marrow derived macrophages (BMDMs) were isolated and derived according to standard protocols. Marrow was extracted from the surgically resected femur and tibia of male C57BL/6 mice, dissociated, and filtered using a 40 μm strainer. Red blood cells were lysed with ammonium chloride, and recovered cells were plated at 2×10^6 cells/well in 24 well plates and maintained in Iscove's Modification of DMEM (IMDM) supplemented with 10% heat-inactivated FBS, 1% Pen-Strep, and 10 ng/mL recombinant mouse macrophage colony-stimulating factor (M-CSF; PeproTech). Primary human monocytes were isolated from peripheral blood (New York Blood Center) from a single healthy human donor via density centrifugation as previously described in the literature. […]

`N[C@@H](Cc1c[nH]c2ccccc12)C(=O)O` [tryptophan]: the “Keq of polyaromatic guests with CD” value in experiment [1] is on record as “single micromolar”.
Consider `COc1ccc(C(=O)Nc2c(Cl)cncc2Cl)cc1OC1CCCC1` [piclamilast], for which, in the experiment with RAW264.7 cells, the “change in il12b expression among six selected drugs” value is recorded as “greatest decrease”; the “change in mrc1 and il10 expression among six selected drugs” value is “greatest increase”. In addition, in the experiment on RAW264.7 cells (qPCR), the “expression of M1-like genes (nos2, il6, il12b)” value is “significantly downregulated” and the “expression of M2-like genes (mrc1, arg1, il10)” value is on record as “upregulation”. Further, in experiment [2], the “cluster analysis of macrophage phenotype” value was “intermediate to M1 and M2 control phenotypes”.
Turning to `COc1cccc2c1C(=O)c1c(O)c3c(c(O)c1C2=O)C[C@@](O)(C(=O)CO)C[C@@H]3O[C@H]1C[C@H](N)[C@H](O)[C@H](C)O1` [doxorubicin], the “Keq of polyaromatic guests with CD” value in experiment [1] was “single micromolar”.
